Test results as given in patent US11572590B2, “Methods for evaluating tumor cell spheroids using 3D microfluidic cell culture device” (Dana-Farber Cancer Institute, Inc., priority 2017, dated 2023).
Like-named read-outs stand apart in the source and are kept apart here.

How the values were obtained:
Assay in all cases: SelectScreen Kinase Profiling, single point inhibition and IC50 for off-target kinases
Format in all cases: biochemical
off-target kinases [1] = target: T1, off-target kinases (Homo sapiens, UniProt Q9UQB9); details: AURKC (Aurora C), ZLYTE, ATP Km app
T1 sequence (Q9UQB9 1-309): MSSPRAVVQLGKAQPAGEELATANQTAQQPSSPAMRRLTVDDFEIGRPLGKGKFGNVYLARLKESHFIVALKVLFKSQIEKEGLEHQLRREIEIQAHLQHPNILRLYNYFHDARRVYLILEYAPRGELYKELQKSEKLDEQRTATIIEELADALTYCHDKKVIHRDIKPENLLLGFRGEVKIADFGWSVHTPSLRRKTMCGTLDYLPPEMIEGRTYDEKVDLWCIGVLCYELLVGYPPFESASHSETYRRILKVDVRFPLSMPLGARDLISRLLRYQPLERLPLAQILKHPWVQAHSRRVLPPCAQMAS

off-target kinases [2] = target: off-target kinases (Homo sapiens, UniProt Q13555); details: CAMK2G (CaMKII gamma), LanthaScreen Binding
Sequence of off-target kinases (Homo sapiens, UniProt Q13555) (Q13555 whole entry): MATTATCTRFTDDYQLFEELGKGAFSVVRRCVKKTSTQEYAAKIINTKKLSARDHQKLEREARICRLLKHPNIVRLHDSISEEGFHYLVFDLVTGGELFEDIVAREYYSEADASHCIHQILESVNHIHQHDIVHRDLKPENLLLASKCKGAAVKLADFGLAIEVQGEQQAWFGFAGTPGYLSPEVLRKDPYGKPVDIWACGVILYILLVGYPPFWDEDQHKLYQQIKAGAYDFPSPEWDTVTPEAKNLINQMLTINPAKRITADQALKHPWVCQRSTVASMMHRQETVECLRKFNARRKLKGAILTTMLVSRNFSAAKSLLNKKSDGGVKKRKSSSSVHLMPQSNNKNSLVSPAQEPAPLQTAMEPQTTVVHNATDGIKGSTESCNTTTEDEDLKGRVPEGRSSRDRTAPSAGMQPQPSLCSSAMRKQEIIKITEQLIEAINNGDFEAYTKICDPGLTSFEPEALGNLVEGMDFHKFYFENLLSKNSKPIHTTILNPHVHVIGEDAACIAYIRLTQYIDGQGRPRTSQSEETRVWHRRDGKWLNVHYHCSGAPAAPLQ

off-target kinases [3] = target: off-target kinases (Homo sapiens, UniProt P08631); details: HCK, ZLYTE, ATP Km app
Sequence of off-target kinases (Homo sapiens, UniProt P08631) (P08631 whole entry): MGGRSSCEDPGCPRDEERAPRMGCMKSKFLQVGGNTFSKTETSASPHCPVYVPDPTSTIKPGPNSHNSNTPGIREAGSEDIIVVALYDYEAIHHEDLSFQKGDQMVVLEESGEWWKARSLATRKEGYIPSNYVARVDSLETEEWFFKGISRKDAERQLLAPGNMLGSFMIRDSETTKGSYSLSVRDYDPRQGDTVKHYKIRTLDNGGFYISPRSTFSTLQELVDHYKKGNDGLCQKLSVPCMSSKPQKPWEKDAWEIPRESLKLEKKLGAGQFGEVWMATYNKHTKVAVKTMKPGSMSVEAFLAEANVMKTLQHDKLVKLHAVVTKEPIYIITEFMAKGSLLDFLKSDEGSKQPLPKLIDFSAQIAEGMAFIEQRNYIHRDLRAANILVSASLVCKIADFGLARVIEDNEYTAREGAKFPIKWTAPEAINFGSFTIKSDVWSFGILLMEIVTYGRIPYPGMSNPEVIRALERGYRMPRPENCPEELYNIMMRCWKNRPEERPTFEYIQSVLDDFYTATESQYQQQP

off-target kinases [4] = target: off-target kinases (Homo sapiens, UniProt P35968); details: KDR (VEGFR2), ATP Km app, ZLYTE
Sequence of off-target kinases (Homo sapiens, UniProt P35968) (P35968 20-1356): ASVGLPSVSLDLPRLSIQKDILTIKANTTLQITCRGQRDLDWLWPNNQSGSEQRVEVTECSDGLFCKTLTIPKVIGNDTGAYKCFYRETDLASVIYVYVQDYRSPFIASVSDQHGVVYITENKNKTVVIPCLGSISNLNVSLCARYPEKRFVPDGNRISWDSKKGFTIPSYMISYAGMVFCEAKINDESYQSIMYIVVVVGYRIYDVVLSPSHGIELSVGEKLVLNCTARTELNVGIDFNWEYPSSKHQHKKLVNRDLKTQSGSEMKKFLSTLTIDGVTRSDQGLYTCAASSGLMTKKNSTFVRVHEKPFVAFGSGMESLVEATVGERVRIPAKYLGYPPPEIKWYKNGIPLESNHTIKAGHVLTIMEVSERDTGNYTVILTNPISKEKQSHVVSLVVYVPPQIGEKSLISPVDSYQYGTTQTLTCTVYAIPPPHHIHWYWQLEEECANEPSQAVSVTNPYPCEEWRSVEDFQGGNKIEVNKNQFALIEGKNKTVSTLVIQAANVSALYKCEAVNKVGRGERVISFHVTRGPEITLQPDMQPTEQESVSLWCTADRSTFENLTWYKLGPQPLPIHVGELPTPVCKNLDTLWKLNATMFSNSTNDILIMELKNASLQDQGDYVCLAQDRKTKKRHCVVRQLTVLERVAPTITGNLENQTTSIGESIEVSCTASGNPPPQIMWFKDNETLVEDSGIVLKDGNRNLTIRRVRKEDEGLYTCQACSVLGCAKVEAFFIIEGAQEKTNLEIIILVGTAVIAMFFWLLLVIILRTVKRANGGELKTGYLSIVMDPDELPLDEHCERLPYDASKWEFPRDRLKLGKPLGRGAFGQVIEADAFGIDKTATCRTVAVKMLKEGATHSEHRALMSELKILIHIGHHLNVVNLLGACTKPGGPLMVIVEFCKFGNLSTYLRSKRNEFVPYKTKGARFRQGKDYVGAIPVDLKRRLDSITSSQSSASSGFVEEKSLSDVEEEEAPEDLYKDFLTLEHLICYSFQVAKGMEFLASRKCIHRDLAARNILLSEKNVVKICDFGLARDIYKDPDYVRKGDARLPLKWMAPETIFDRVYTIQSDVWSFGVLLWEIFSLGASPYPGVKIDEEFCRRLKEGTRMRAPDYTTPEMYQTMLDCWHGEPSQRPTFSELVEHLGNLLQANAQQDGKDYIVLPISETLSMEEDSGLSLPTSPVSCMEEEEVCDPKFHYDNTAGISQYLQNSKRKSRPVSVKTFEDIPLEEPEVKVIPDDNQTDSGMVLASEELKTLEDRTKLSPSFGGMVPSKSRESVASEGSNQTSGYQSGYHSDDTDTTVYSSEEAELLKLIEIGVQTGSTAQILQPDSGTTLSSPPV

off-target kinases [5] = target: off-target kinases (Homo sapiens, UniProt P19784); details: CSNK2A2 (CK2 alpha 2), ZLYTE, ATP Km app
Sequence of off-target kinases (Homo sapiens, UniProt P19784) (P19784 whole entry): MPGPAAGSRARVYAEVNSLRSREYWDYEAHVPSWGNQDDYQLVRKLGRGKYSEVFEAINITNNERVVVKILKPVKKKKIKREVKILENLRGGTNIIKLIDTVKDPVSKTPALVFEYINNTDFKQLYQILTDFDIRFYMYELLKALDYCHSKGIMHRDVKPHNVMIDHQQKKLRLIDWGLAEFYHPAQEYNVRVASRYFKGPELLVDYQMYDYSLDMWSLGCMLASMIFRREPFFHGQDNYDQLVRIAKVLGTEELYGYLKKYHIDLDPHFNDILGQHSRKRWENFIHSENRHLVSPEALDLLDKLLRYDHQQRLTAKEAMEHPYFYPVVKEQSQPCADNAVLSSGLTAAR

off-target kinases [6] = target: off-target kinases (Homo sapiens, UniProt P22607, K650M); details: FGFR3 K650M, mutant y, LanthaScreen Binding
Sequence of off-target kinases (Homo sapiens, UniProt P22607, K650M) (P22607 23-806 K650M): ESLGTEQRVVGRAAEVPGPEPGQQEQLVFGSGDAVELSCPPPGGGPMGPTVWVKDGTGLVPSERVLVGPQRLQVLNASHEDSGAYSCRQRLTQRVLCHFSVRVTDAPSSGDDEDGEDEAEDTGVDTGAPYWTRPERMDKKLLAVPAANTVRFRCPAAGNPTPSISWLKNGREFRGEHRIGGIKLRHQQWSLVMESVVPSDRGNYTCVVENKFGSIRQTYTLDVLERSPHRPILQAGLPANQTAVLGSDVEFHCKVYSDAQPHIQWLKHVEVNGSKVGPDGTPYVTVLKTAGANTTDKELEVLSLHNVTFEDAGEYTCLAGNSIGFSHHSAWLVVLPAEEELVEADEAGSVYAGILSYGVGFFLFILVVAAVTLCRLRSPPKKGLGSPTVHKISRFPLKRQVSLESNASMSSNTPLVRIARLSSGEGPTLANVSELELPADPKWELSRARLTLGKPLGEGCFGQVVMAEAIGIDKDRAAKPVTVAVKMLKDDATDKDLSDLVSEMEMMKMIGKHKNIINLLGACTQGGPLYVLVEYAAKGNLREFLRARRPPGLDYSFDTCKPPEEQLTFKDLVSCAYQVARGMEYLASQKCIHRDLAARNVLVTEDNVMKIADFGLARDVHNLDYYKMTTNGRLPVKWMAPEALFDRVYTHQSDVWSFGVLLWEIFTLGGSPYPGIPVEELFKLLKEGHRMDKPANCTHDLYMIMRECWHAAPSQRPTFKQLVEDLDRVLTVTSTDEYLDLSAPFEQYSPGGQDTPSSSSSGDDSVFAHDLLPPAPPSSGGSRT

off-target kinases [7] = target: off-target kinases (Homo sapiens, UniProt P48729); details: CSNK1A1 (CK1 alpha 1), ZLYTE, ATP Km app
Sequence of off-target kinases (Homo sapiens, UniProt P48729) (P48729 whole entry): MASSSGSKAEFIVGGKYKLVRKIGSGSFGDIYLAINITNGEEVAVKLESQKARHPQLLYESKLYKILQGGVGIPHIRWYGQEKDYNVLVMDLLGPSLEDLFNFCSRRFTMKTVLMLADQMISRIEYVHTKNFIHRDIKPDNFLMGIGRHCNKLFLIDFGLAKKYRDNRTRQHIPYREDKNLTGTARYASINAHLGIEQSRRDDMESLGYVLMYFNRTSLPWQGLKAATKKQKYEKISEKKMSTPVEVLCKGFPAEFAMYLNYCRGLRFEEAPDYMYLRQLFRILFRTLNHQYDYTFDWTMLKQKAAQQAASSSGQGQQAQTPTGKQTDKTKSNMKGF

off-target kinases [8] = target: off-target kinases (Homo sapiens, UniProt P51812); details: RPS6KA3 (RSK2), ZLYTE, ATP Km app
Sequence of off-target kinases (Homo sapiens, UniProt P51812) (P51812 whole entry): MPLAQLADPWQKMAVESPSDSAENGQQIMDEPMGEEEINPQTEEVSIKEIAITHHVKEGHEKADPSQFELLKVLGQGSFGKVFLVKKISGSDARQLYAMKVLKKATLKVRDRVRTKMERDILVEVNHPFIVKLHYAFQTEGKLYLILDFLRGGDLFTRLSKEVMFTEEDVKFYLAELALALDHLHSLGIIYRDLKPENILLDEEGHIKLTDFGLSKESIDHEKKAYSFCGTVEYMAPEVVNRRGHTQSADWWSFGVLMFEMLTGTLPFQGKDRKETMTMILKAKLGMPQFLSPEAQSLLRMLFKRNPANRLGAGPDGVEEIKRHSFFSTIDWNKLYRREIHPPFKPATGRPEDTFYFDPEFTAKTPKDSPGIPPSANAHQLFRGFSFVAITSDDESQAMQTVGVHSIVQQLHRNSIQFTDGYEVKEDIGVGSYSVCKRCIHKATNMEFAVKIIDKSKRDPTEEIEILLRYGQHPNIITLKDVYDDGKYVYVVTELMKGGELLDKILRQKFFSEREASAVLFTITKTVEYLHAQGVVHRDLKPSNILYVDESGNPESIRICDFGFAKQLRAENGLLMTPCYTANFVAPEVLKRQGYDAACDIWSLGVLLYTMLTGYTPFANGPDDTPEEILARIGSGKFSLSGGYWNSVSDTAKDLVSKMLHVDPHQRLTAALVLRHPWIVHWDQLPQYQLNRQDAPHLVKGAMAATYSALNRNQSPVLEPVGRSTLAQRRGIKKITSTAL

off-target kinases [9] = target: off-target kinases (Homo sapiens, UniProt Q9NY57); details: STK32B (YANK2), LanthaScreen Binding
Sequence of off-target kinases (Homo sapiens, UniProt Q9NY57) (Q9NY57 whole entry): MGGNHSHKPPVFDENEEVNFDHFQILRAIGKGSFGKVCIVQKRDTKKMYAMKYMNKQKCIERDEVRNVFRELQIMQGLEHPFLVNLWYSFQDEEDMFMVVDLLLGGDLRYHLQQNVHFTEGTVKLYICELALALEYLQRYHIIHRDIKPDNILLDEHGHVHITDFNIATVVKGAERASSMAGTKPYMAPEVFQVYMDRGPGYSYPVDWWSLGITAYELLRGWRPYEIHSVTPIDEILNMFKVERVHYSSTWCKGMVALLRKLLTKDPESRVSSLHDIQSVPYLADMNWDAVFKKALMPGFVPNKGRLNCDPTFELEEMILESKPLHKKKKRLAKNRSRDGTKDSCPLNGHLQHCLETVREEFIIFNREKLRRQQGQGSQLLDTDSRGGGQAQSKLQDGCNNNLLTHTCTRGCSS

Q: With N#Cc1cc(-c2ncnc(Nc3ccc(N4CCN(C5COC5)CC4)cc3)n2)ccc1OC1CCOCC1 [Compound 1, 5-(4-((4-(4-(oxetan-3-yl)piperazin-1-yl)phenyl)amino)-1,3,5-triazin-2-yl)-2-((tetrahydro-2H-pyran-4-yl)oxy)benzonitrile] as the molecule, how does the inhibition (off-target kinases [1]; read-out: % Inhibition 1) read?
A: 23%

Q: And the inhibition (off-target kinases [1]; read-out: % Inhibition 2)?
A: 23%

Q: And the inhibition (off-target kinases [1]; read-out: % Inhibition Avg)?
A: 23%

Q: What about the inhibition (off-target kinases [2]; read-out: % Inhibition 1) of the same molecule?
A: 18%

Q: What about the inhibition (off-target kinases [2]; read-out: % Inhibition 2) of the same molecule?
A: 19%

Q: What about the inhibition (off-target kinases [2]; read-out: % Inhibition Avg) of the same molecule?
A: 18%

Q: And the inhibition (off-target kinases [3]; read-out: % Inhibition 1)?
A: 26%

Q: And the inhibition (off-target kinases [3]; read-out: % Inhibition 2)?
A: 28%

Q: And the inhibition (off-target kinases [3]; read-out: % Inhibition Avg)?
A: 27%

Q: And the inhibition (off-target kinases [4]; read-out: % Inhibition 1)?
A: 51%

Q: What about the inhibition (off-target kinases [4]; read-out: % Inhibition 2) of the same molecule?
A: 53%

Q: What about the inhibition (off-target kinases [4]; read-out: % Inhibition Avg) of the same molecule?
A: 52%

Q: What about the inhibition (off-target kinases [5]; read-out: % Inhibition 1) of the same molecule?
A: 32%

Q: And the inhibition (off-target kinases [5]; read-out: % Inhibition 2)?
A: 30%

Q: And the inhibition (off-target kinases [5]; read-out: % Inhibition Avg)?
A: 31%

Q: And the inhibition (off-target kinases [6]; read-out: % Inhibition 1)?
A: 33%

Q: What about the inhibition (off-target kinases [6]; read-out: % Inhibition 2) of the same molecule?
A: 38%

Q: What about the inhibition (off-target kinases [6]; read-out: % Inhibition Avg) of the same molecule?
A: 35%

Q: What about the inhibition (off-target kinases [7]; read-out: % Inhibition 1) of the same molecule?
A: 2%

Q: What about the inhibition (off-target kinases [7]; read-out: % Inhibition 2) of the same molecule?
A: 1%

Q: What about the inhibition (off-target kinases [7]; read-out: % Inhibition Avg) of the same molecule?
A: 1%

Q: And the inhibition (off-target kinases [8]; read-out: % Inhibition 1)?
A: 17%

Q: And the inhibition (off-target kinases [8]; read-out: % Inhibition 2)?
A: 10%

Q: What about the inhibition (off-target kinases [8]; read-out: % Inhibition Avg) of the same molecule?
A: 14%

Q: And the inhibition (off-target kinases [9]; read-out: % Inhibition 1)?
A: 1%

Q: And the inhibition (off-target kinases [9]; read-out: % Inhibition 2)?
A: 8%

Q: And the inhibition (off-target kinases [9]; read-out: % Inhibition Avg)?
A: 5%
